Some test systems named below: SNB-75; OVCAR-5; MOLT-4; BT-549; M14; UO-31; EKVX; DMS-273; UACC-62; HCT-116; T47D; NCI-H23; HCC 2998; SF-295; SW-620; K562; A498; 786-0; MDA-MB-435; SK-MEL-28.
Holding throughout (test): NCI tumour cell line growth inhibition, 48 h

Structures are written as SMILES. Where “and” joins values, the source holds several entries; their conditions need not be identical. Equal values may be shown once.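 1) Cells in 96-well plates. 2) Compound, 48 h, 5 concentrations. 3) Linear interpolation between surrounding doses. 4) Unreached endpoint = highest concentration. GI50 is the concentration that inhibits growth by half.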 Calls of active or inactive are those of the source. Rule as the data show it: active = GI50 up to about 1.1 µM and inactive = higher. A value given as a limit tells only on which side of the number the result lay.

Take `Nc1nc(N)c(CCCCc2ccc([N+](=O)[O-])cc2)c(N)n1`: the GI50 with SNB-75 was > 100 µM (inactive); in the assay on OVCAR-5, 78.7 µM (inactive); in the assay on MOLT-4, 8.22 µM (inactive); in the assay with BT-549, > 100 µM (inactive); with M14, 31 µM (inactive); in the assay on UO-31, > 100 µM (inactive). In addition, the GI50 was > 100 µM (inactive) in the assay with EKVX; 11.6 µM (inactive) with DMS-273; 8.67 µM (inactive) in the assay with UACC-62; 3.93 µM (inactive) with HCT-116; > 100 µM (inactive) with T47D; 10.6 µM (inactive) with NCI-H23. The GI50 in the assay with HCC 2998 was 38.1 µM (inactive); with SF-295, 17.1 µM (inactive); in the assay on SW-620 it was > 30.5 µM (inactive); in the assay on K562, 3.86 µM (inactive); in the assay on A498, > 100 µM (inactive); in the assay on 786-0 it was 8.67 µM (inactive).

As for `COc1ccc(OC)c(/C=C/[N+](=O)[O-])c1`, the GI50 is 6.64 µM (inactive) and 4.62 µM (inactive) in the assay with SNB-75; 2.37 µM (inactive) with MDA-MB-435; 3.67 µM (inactive) in the assay on BT-549; 1.98 µM (inactive) and 3.36 µM (inactive) in the assay with M14; 1.74 µM (inactive) and 2.77 µM (inactive) in the assay on UO-31; 2.61 µM (inactive) with DMS-273. Further, the GI50 in the assay on HCT-116 was 1.85 µM (inactive) and 3.13 µM (inactive); in the assay on T47D it was 3.01 µM (inactive); in the assay on NCI-H23, 4.02 µM (inactive) and 2.41 µM (inactive); in the assay on SK-MEL-28 it was 2.01 µM (inactive) and 3.48 µM (inactive); in the assay with SF-295, 5.24 µM (inactive) and 3.46 µM (inactive); with SW-620, 3 µM (inactive) and 2.2 µM (inactive). Further, the GI50 was 2.59 µM (inactive) and 2.83 µM (inactive) in the assay with K562; 3.92 µM (inactive) and 3.94 µM (inactive) in the assay with A498; 1.79 µM (inactive) and 1.57 µM (inactive) with 786-0.

Turning to `O=C1C=CC2(O)OCC3C=C4O[C@@H]5OC6(CCCCC6)O[C@@H]5C4[C@@H]2[C@@H]13` (some centres undefined), the GI50 in the assay on SNB-75 was 35.6 µM (inactive); with OVCAR-5, 31.8 µM (inactive); in the assay with MOLT-4 it was 9.25 µM (inactive); in the assay with M14, 20.5 µM (inactive); in the assay on UO-31 it was 18.6 µM (inactive); with EKVX it was 38.3 µM (inactive). For the same molecule, the GI50 in the assay on DMS-273 was 50.4 µM (inactive); with UACC-62, 32.7 µM (inactive); with HCT-116, 15.8 µM (inactive); in the assay with NCI-H23 it was 23.8 µM (inactive); in the assay on HCC 2998, 53.2 µM (inactive); with SK-MEL-28, 20 µM (inactive). Besides, the GI50 in the assay on SF-295 was > 100 µM (inactive); with SW-620, 27.4 µM (inactive); with K562, 14.5 µM (inactive); in the assay with A498 it was 72.4 µM (inactive); in the assay with 786-0, 20.4 µM (inactive).

For `COc1ccc(NCc2cc(OC)c(OC)c(OC)c2)cc1`, the GI50 in the assay on MOLT-4 was 0.493 µM (active); in the assay on MDA-MB-435 it was 0.0711 µM (active); in the assay with M14, 0.265 µM (active); in the assay on EKVX, 4.74 µM (inactive); in the assay with DMS-273, 0.178 µM (active); in the assay with UACC-62, 0.274 µM (active). In addition, the GI50 is 0.408 µM (active) in the assay with HCT-116; 0.973 µM (active) in the assay on NCI-H23; 0.362 µM (active) in the assay on HCC 2998; 0.396 µM (active) in the assay on SK-MEL-28; 0.294 µM (active) in the assay on SF-295; 0.215 µM (active) with SW-620. Besides, the GI50 was 0.521 µM (active) in the assay with A498 and 0.583 µM (active) in the assay on 786-0.

In the case of `CC(CN1CC(=O)NC(=O)C1)N1CC(=O)NC(=O)C1` (centres undefined) [RAZOXANE], the GI50 in the assay with SNB-75 is 306 µM (inactive); in the assay with OVCAR-5, 343 µM (inactive); in the assay with MOLT-4, 34.9 µM (inactive); in the assay on MDA-MB-435 it was 485 µM (inactive); in the assay on BT-549, 385 µM (inactive); with M14 it was 217 µM (inactive). Moreover, the GI50 in the assay on UO-31 is 349 µM (inactive); in the assay on EKVX, 209 µM (inactive); in the assay on DMS-273, 513 µM (inactive); in the assay on UACC-62, 340 µM (inactive); in the assay with HCT-116 it was 104 µM (inactive); in the assay with T47D, 231 µM (inactive). The GI50 is 213 µM (inactive) in the assay on NCI-H23; 339 µM (inactive) in the assay with HCC 2998; 522 µM (inactive) in the assay on SK-MEL-28; 127 µM (inactive) in the assay on SF-295; 54.7 µM (inactive) in the assay with SW-620; 188 µM (inactive) in the assay on K562. Further, the GI50 was 157 µM (inactive) with A498 and 98.9 µM (inactive) in the assay with 786-0.
